{"source": "paper PMC6369212", "about": "“Cytochrome P450 3A Enzymes Are Key Contributors for Hepatic Metabolism of Bufotalin, a Natural Constitute in Chinese Medicine Chansu” (Frontiers in Pharmacology, 2019)", "key": {"HLM [1]": {"test_system": "HLM", "assay": "Material balance of BFT and its metabolite in HLM", "format": "in vitro ADME, human", "procedure": "A single metabolite of BFT was identified following incubation with HLM (0.3 mg protein/ml) in the presence of the NADPH-generating system (Figure 1). […] The metabolite was characterized by UFLC-DAD-ESI-MS, and the formation of monohydroxylbufotalin was NADPH-, time-, and microsome-dependent. […] The [M+H]^+ and [M+CH3CN+H]^+ ion of the metabolite at m/z in HLM were 461.3 and 502.4, respectively."}, "[2]": {"test_system": "BFT 5β-hydroxylation in pooled HLM", "assay": "Chemical inhibition of BFT 5β-hydroxylation by selective CYP inhibitors in HLM", "format": "in vitro ADME, human", "details": "BFT 10 μM, HLM 0.25 mg protein/ml", "quoted_text": "(§1) Human liver microsomes or CYPs were incubated with NADPH-generating system, which included NADP^+ (1 mM), glucose-6-phosphate (10 mM), glucose-6-phosphate dehydrogenase (1 unit/ml), and 4 mM MgCl2 in 100 mM potassium phosphate buffer (pH 7.4) in a total incubation volume of 200 μl. After a 3 min preincubation at 37°C, the reaction was initiated by the addition of NADPH-generating system and further incubated at 37°C for 30 min. The reaction was quenched with 100 μl of ice-cold acetonitrile. The samples were chilled, spun at 20,000 × g for 20 min at 4°C. Aliquots of supernatants were then stored at -20°C until analysis. All incubations throughout the study were done in three experiments conducted in duplicate with S.D. values generally below 10%."}, "in vitro": {"assay": "in vitro", "details": "human; for Km: pH 7.4, Km, BFT 5β-hydroxylation, HLM 0.25 mg protein/mL, 30 min, biphasic kinetics", "quoted_text": "as §1\n(§2) The formation rates of 5-HBFT was within the linear range of the incubation time and protein concentration. […] BFT was incubated with pooled HLM (0.25 mg protein/mL) for 30 min, or with recombinant CYP3A4 (5 nM) and CYP3A5 (10 nM) for 30 min. […] The kinetic constants were calculated with GraphPad Prism software, version 6.0, and the results were graphically represented by Eadie–Hofstee plots.\n(§3) (1) v=Vmax 1[S]/Kmax 1+[S]+Vmax 2[S]/Kmax 2+[S]\n(§4) where v is the rate of the reaction, [S] is the substrate concentration, Vmax is the maximum velocity estimate, Km is the substrate affinity constant.\n(§5) Km values are μM, Vmax values were in nmol/min/mg protein for liver microsomes, or in nmol/min/nmol CYP for CYP3A. […] Each value was the mean ± S.D. of three determinations performed in duplicate."}, "HLM [3]": {"test_system": "HLM", "quoted_text": "as §1, §2, §3, §4, §5"}, "recombinant human CYP3A4": {"molecular_target": "recombinant human CYP3A4 (Homo sapiens, UniProt P08684)", "sequence (P08684 2-503 limits assumed)": "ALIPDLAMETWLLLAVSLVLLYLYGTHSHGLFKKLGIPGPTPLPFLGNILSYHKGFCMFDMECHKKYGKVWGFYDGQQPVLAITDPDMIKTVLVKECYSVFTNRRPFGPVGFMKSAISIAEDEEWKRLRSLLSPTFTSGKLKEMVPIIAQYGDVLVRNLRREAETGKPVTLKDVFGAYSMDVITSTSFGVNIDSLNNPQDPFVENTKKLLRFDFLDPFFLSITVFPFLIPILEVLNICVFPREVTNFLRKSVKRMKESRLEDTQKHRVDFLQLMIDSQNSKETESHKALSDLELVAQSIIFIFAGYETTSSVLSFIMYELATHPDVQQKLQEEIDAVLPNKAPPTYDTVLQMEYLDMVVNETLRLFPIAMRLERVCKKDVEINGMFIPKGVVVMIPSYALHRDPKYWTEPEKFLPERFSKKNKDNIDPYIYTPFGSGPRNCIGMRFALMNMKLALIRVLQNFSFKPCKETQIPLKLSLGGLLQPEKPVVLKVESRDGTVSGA", "assay": "Kinetic analysis of 5β-hydroxylation in recombinant CYP3A4", "quoted_text": "as §1, §2, §3, §4, §5"}, "other P450 isoforms": {"test_system": "other P450 isoforms", "assay": "Reaction phenotyping of BFT hydroxylation with other recombinant P450 isoforms", "format": "in vitro ADME, human", "details": "BFT 3 and 100 μM, isoforms other than CYP3A4 and CYP3A5", "description": "BFT and BF were purchased from Shanghai Winherb Medical Technology Company (Shanghai, China). ABT, furafylline, sulfaphenazole, clomethiazole, omeprazole, 8-methoxypsoralen, ticlopidine, CYP3cide, glucose-6-phosphate dehydrogenase, D-glucose-6-phosphate, and NADP^+ were obtained from Sigma (St. Louis, MO, United States). Montelukast, quinidine, ketoconazole was purchased from Jianglai Biotechnology Co., Ltd. (Shanghai, China). The pooled HLMs (from 50 donors, lot no. X008067) were obtained from BioreclamationIVT (Baltimore, MD, United States). A panel of baculovirus expressed human P450s (CYP1A1, 1A2, 2A6, 2A13, 2B6, 2C8, 2C9, 2C19, 2D6, 2E1, 3A4, 3A5, 4F2, and 4F3), co-expressing NADPH-CYP reductase and cytochrome b5 were obtained from BD Gentest Corp (Woburn, MA, United States). All chemicals and solvents were of analytical grade.\n[…] cDNA-expressed human P450 isoforms co-expressing NADPH-P450 reductase were used for assay of BFT hydroxylation activity."}, "recombinant human CYP3A5": {"molecular_target": "recombinant human CYP3A5 (Homo sapiens, UniProt P20815)", "sequence (P20815 whole entry)": "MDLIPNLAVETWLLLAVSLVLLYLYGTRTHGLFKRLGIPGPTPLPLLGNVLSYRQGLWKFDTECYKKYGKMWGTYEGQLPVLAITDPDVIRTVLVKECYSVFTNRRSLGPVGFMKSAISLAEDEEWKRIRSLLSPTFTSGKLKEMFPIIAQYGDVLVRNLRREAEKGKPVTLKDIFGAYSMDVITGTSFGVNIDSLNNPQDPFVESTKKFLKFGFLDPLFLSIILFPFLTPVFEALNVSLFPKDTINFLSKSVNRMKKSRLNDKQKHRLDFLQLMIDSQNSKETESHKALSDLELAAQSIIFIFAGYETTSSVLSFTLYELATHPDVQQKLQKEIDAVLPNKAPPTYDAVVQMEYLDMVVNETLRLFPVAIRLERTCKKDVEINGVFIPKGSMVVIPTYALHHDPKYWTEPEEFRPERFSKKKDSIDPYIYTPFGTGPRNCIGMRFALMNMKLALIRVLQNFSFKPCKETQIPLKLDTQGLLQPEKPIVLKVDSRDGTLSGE", "assay": "Kinetic analysis of 5β-hydroxylation in recombinant CYP3A5", "quoted_text": "as §1\n(§6) BFT was incubated with pooled HLM (0.25 mg protein/mL) for 30 min, or with recombinant CYP3A4 (5 nM) and CYP3A5 (10 nM) for 30 min. […] The kinetic constants were calculated with GraphPad Prism software, version 6.0, and the results were graphically represented by Eadie–Hofstee plots.\n(2) v=Vmax/1+(Km/[S])+([S]/Ksi)\n(§7) where Ksi is the substrate inhibition constant.\nas §5"}, "[4]": {"test_system": "CC(=O)O[C@H]1C[C@]2(O)[C@@H]3CC[C@@H]4C[C@@H](O)CC[C@]4(C)[C@H]3CC[C@]2(C)[C@H]1c1ccc(=O)oc1", "assay": "cells, lysate or membranes named", "details": "other: CYP3A5 10 nM, 30 min, substrate inhibition kinetics; pH 7.4; 37.0 °C", "quoted_text": "as §1, §6\n(2) v=Vmax/1+(Km/[S])+([S]/Ksi)\nas §7, §5"}, "[5]": {"details": "HLM 0.25 mg protein/mL, 30 min, biphasic kinetics"}, "[6]": {"details": "CYP3A4 5 nM, 30 min, biphasic kinetics"}, "[7]": {"details": "CYP3A5 10 nM, 30 min, substrate inhibition kinetics"}}, "note": "Where “and” joins values, the source holds several entries; their conditions need not be identical. Equal values may be shown once.", "data": [{"compound": "CC(=O)OC1CC2(O)C3CCC4(O)CC(O)CCC4(C)C3CCC2(C)C1c1ccc(=O)oc1", "note": "(stereo not drawn) [5-HBFT, 5β-hydroxylbufotalin]", "values": [{"measurement": "Compound (%), material balance", "setting": "HLM [1]; time 0 min", "value": 0, "unit": "%"}, {"measurement": "Compound (%), material balance", "setting": "HLM [1]; time 30 min", "value": 11.1392, "unit": "%"}, {"measurement": "Compound (%), material balance", "setting": "HLM [1]; time 60 min", "value": 24.5928, "unit": "%"}]}, {"compound": "Nn1nnc2ccccc21", "note": "[ABT, 1-aminobenzotriazole]", "values": [{"measurement": "inhibition of 5-HBFT formation in HLM", "setting": "[2]", "value": "completely"}]}, {"compound": "C[C@]12CC[C@H](O)C[C@H]1CC[C@@H]1[C@@H]2CC[C@]2(C)[C@@H](c3ccc(=O)oc3)CC[C@]12O", "note": "[BF, bufalin, reference compound]", "values": [{"measurement": "Km at 30 min", "setting": "in vitro; pH 7.4", "value": "8 ± 0.52", "unit": "µM"}]}, {"compound": "CC(=O)O[C@H]1C[C@]2(O)[C@@H]3CC[C@@H]4C[C@@H](O)CC[C@]4(C)[C@H]3CC[C@]2(C)[C@H]1c1ccc(=O)oc1", "note": "[BFT, bufotalin]", "values": [{"measurement": "Km", "setting": "in vitro; high-affinity site (Km1)", "value": "3.71 ± 2.68", "unit": "µM"}, {"measurement": "Km", "setting": "in vitro; low-affinity site (Km2)", "value": "134 ± 72.2", "unit": "µM"}, {"measurement": "Vmax, high-affinity site (Vmax1), BFT 5β-hydroxylation", "setting": "HLM [3]; [5]", "value": "33.31 per min/mg and 33.31 ± 12.64 per min/mg"}, {"measurement": "Vmax, low-affinity site (Vmax2), BFT 5β-hydroxylation", "setting": "HLM [3]; [5]", "value": "107.30 per min/mg and 107.30 ± 11.77 per min/mg"}, {"measurement": "kinetic behavior of BFT 5β-hydroxylation", "setting": "HLM [3]; HLM, Eadie–Hofstee plot", "value": "biphasic kinetics"}, {"measurement": "Vmax, high-affinity site (Vmax1), BFT 5β-hydroxylation", "setting": "recombinant human CYP3A4; [6]", "value": "6.87 per min/nmol P450 and 6.87 ± 3.59 per min/nmol P450"}, {"measurement": "Vmax, low-affinity site (Vmax2), BFT 5β-hydroxylation", "setting": "recombinant human CYP3A4; [6]", "value": "33.70 per min/nmol P450 and 33.70 ± 3.08 per min/nmol P450"}, {"measurement": "kinetic behavior of BFT 5β-hydroxylation", "setting": "recombinant human CYP3A4; CYP3A4, Eadie–Hofstee plot", "value": "biphasic kinetics"}, {"measurement": "Compound (%), material balance", "setting": "HLM [1]; time 0 min", "value": 99.5, "unit": "%"}, {"measurement": "Compound (%), material balance", "setting": "HLM [1]; time 30 min", "value": 88.0247, "unit": "%"}, {"measurement": "Compound (%), material balance", "setting": "HLM [1]; time 60 min", "value": 73.5708, "unit": "%"}, {"measurement": "metabolite formation by other P450 isoforms", "setting": "other P450 isoforms", "value": "no metabolites were detected"}, {"measurement": "CLint, BFT 5β-hydroxylation", "setting": "recombinant human CYP3A5; CYP3A5", "value": 1186.12}, {"measurement": "Ksi (substrate inhibition constant), BFT 5β-hydroxylation", "setting": "recombinant human CYP3A5; [7]", "value": "170.00 ± 12.69", "unit": "µM"}, {"measurement": "Vmax, BFT 5β-hydroxylation", "setting": "recombinant human CYP3A5; [7]", "value": "3.45 nmol/min per nanomole P450"}, {"measurement": "kinetic behavior of BFT 5β-hydroxylation", "setting": "recombinant human CYP3A5; CYP3A5, Eadie–Hofstee plot", "value": "substrate inhibition kinetic"}]}, {"compound": "Cc1ccc(-c2c(-c3nn(C)c4ncnc(N5CC[C@H](N6CCCCC6)C5)c34)cnn2C)cc1", "note": "[CYP3cide]", "values": [{"measurement": "inhibition of 5-HBFT formation in HLM", "setting": "[2]", "value": "~90", "unit": "%"}]}, {"compound": "recombinant human CYP3A5 (Homo sapiens)", "values": [{"measurement": "Km", "setting": "[4]", "value": "2.91 ± 0.24", "unit": "µM"}, {"measurement": "kcat", "setting": "[4]", "value": "3.45 ± 0.09 nmol/min per nanomole P450"}]}]}
